The results in this text go back to patent US20260364184A1, “COMPOUND BASED ON OXOISOINDOLINYL-SUBSTITUTED TETRAHYDROPYRIMIDINE-DIONE AND USE THEREOF” (GLUETACS THERAPEUTICS (SHANGHAI) CO., LTD., priority 2023, published 2026).

Where two headings read alike, the source gives them in different places.

In general, inhibition refers to the relative decrease from the control value, in per cent.

In experiment [1] the test system is Human acute lymphocytic leukemia T lymphocytes cell line (CCRF-CEM). Kind of experiment: Inhibition of CCRF-CEM cell proliferation (CellTiter luminescent viability). In kind it is cell-based. The note with it: Homo sapiens, 96 h, Table IF2, AR inhibitor-based; for inhibition at 0.01 µM: 10 nM, read-out: Inhibition Rate at 10 nM (%); for inhibition at 0.5 µM: 500 nM, read-out: Inhibition Rate at 500 nM (%). As for the experimental part:
(§1) The tumor cells used herein were cultured in a cell culture medium listed in table 3 at 37 °C in an incubator with 5% CO2. Prior to experimentation, all cell lines used were correctly identified by STR profiling, and tested negative for mycoplasma contamination using a mycoplasma detection kit through routine screenings.
(§2) The IC50 values of the compounds of the present disclosure (including the compounds in Table 1, Table 2, and Examples 1-468) were determined using the CellTiter-Meiluncell Luminescent Cell Viability Assay Kit from Dalian Meilun Biotech Co., Ltd. The detailed procedure is as follows: Tumor cells were seeded in 96-well cell culture plates at the densities specified in Table 4. On the following day, the test compounds of the present disclosure were subjected to serial dilution. The dilution can be performed according to one of the following two methods: • (1) The first dilution method: The test compounds of the present disclosure (including the compounds in Table 1, Table 2, and Examples 1-468) were subjected to 5-fold serial dilutions starting from a highest concentration of 2000 μM, resulting in a total of 9 concentrations from high to low (2000, 400, 80, 16, 3.2, 0.64, 0.128, 0.0256, 0.00512 μM). Subsequently, 0.5 μL of the test compound dilution was transferred into the 96-well plate containing the cells, with each well containing 100 μL of cell culture medium. […] Into the 96-well plate, the diluted test compounds and corresponding detection reagents were added, resulting in final test compound concentrations of 500 nM and 10 nM, respectively. The experimental procedure is described below using the diluted 2 μM test compound as an example.
(§3) 0.5 μL of the aforementioned diluted compound of the present disclosure (including the compounds in Table 1, Table 2, and Examples 1-468) was added to the seeded cells in 100 μL of medium, yielding a final test compound concentration of 10 nM. After the cells were treated with the compounds of the present disclosure for a specified period, the cell viability assay reagent was added to the culture medium according to the kit's instructions to determine cell viability. […] All controls were treated using the same procedure as the compounds of the present disclosure. The growth inhibition curves for the compounds of the present disclosure were plotted using Prism GraphPad software, and the IC50 values were calculated therefrom.

Experiment [2] deals with Human diffuse large B-cell lymphoma cell line (TMD8). Kind of experiment: Inhibition of TMD8 cell proliferation (CellTiter luminescent viability). In kind it is cell-based. The note with it: Homo sapiens, TMD8, 96 h, Table IF1, AR inhibitor-based; for inhibition at 0.01 µM: TMD8, 10 nM, read-out: Inhibition Rate at 10 nM (%); for inhibition at 0.5 µM: TMD8, 500 nM, read-out: Inhibition Rate at 500 nM (%). As to the method: as §1, §2, §3

Experiment [3] relates to Human T lymphocytic leukemia cell line (Jurkat). Kind of experiment: Inhibition of Jurkat cell proliferation (CellTiter luminescent viability). The note with it: Homo sapiens, Table IF3, AR inhibitor-based, 96 hours; for inhibition at 0.01 µM: 10 nM, read-out: Inhibition Rate at 10 nM (%); for inhibition at 0.5 µM: 500 nM, read-out: Inhibition Rate at 500 nM (%). In kind it is cell-based. As to the method: as §1, §2, §3

The subject of experiment [4] is Human B-Cell Lymphoma Cells (RPMI-8226). Kind of experiment: Inhibition of RPMI-8226 cell proliferation (CellTiter luminescent viability). Format: cell-based. The note with it: RPMI-8226, 500 nM, read-out: Inhibition Rate at 500 nM (%). As to the method: as §1, §2, §3
Test in experiment [5]: as above
Format: cell-based. The following applies: Homo sapiens, read-out: Inhibition Rate at 10 nM (%). As for the experimental part:
as §1, §2, §3

The test system of experiment [6] is Human lung cancer cell line (H292). Kind of experiment: Inhibition of H292 cell proliferation (CellTiter luminescent viability). In kind it is cell-based. The following applies: NCI-H292, Table IE2, CDK4/6 inhibitor-based, 96 hours. As to the method:
as §1, §2, §3

Experiment [7] concerns Human myeloid monocytic leukemia cell line (MV-4-11). Kind of experiment: Inhibition of MV-4-11 cell proliferation (CellTiter luminescent viability). Format: cell-based. The note with it: Homo sapiens, MV4-11, Table IE3, CDK4/6 inhibitor-based, 96 hours. An outline of the steps: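 IC50 is fitted from luminescent viability (CellTiter-Meiluncell) curves. Nine-point, 5-fold dilution series (top stock 2000 μM) are added at 0.5 μL per 100 μL medium to cells plated the day before, with growth at 37 °C and 5% CO2.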

Experiment [8] deals with Human large cell immunoblastic lymphoma cell line SR. Kind of experiment: Inhibition of SR cell proliferation (CellTiter luminescent viability). Format: cell-based. The following applies: Table IB1, ALK inhibitor-based, 96 hours, read-out: Inhibitory activity (IC50, nM) on tumor cell proliferation, SR. As to the method:
as §1, §2, §3

Experiment [9] concerns the target T1, human Cereblon WT GST-tagged protein (CRBN) (Homo sapiens, UniProt Q96SW2).
T1 construct: purchased CISBIO 64BDCRBNPEH
Kind of experiment: CRBN binding by HTRF (Cereblon binding kit). An outline of the steps: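 GST-tagged human Cereblon WT was incubated 3 h at room temperature with compound, thalidomide-Re tracer and Eu anti-GST antibody. Final compound concentrations were 10 to 0.00064 µM (7 points) or 2 and 0.5 µM. Inhibition rate was calculated from HTRF 665/620 nm ratios versus solvent and blank controls.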
On the technique in general: In TR-FRET formats the signal depends on donor and acceptor labels being close together.

T1 sequence (Q96SW2 whole entry): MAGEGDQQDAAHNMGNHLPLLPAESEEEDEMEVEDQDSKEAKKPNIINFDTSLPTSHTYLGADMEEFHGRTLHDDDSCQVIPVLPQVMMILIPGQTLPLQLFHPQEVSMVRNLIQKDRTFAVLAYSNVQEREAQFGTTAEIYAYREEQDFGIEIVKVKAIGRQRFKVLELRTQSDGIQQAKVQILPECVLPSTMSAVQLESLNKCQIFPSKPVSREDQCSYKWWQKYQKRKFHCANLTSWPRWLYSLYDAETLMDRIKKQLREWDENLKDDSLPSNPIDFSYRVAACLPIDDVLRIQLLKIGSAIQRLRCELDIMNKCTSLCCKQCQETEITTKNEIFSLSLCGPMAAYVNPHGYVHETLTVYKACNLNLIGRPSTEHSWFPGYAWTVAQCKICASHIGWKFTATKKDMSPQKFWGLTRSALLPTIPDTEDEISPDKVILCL

For `CNC(=O)c1ccc(N2C(=S)N(c3ccc(C#N)c(C(F)(F)F)c3)C(=O)C2(C)C)cc1F` [Enzalutamide, reference compound], the values for the inhibition at 0.01 µM in experiment [1], in [2] and in experiment [3] were 0 to 5%, 10 to 15% and 5 to 10%, respectively. Further, the inhibition at 0.5 µM lay within 0 to 5% in [1], 10 to 15% in experiment [2] and 5 to 10% in [3].
In the case of `N#Cc1ccc(O[C@H]2CC[C@H](NC(=O)c3ccc(N4CCC(CN5C[C@H]6C[C@@H]5CN6c5ccc6c(c5)C(=O)N(N5CCC(=O)NC5=O)C6=O)CC4)nn3)CC2)cc1Cl` [GT-05227, N-((1r,4r)-4-(3-chloro-4-cyanophenoxy)cyclohexyl)-6-(4-(((1R,4R)-5-(2-(2,4-dioxotetrahydropyrimidin-1(2H)-yl)-1,3-dioxoisoindolin-5-yl)-2,5-diazabicyclo[2.2.1]heptan-2-yl)methyl)piperidin-1-yl)pyridazine-3-carboxamide], the inhibition at 0.01 µM in experiment [1] was 20 to 30%; in experiment [2], 15 to 20%; in experiment [3], 5 to 10%. For the same molecule, the inhibition at 0.5 µM in experiment [1] is 20 to 30%; in experiment [2], 25 to 30%; in [3], 20 to 30%.
For the molecule `N#Cc1ccc(O[C@H]2CC[C@H](NC(=O)c3ccc(N4CCC(CN5CCN(c6cccc7c6C(=O)N(N6CCC(=O)NC6=O)C7=O)CC5)CC4)nn3)CC2)cc1Cl` [GT-05230, N-((1r,4r)-4-(3-chloro-4-cyanophenoxy)cyclohexyl)-6-(4-((4-(2-(2,4-dioxotetrahydropyrimidin-1(2H)-yl)-1,3-dioxoisoindolin-4-yl)piperazin-1-yl)methyl)piperidin-1-yl)pyridazine-3-carboxamide], the inhibition at 0.01 µM in [1] fell in the range of 10 to 15%; in experiment [2], 5 to 10%; in experiment [3], 10 to 15%. In addition, the inhibition at 0.5 µM in experiment [1] was in the range of 20 to 30%; in [2], 20 to 25%; in [3] it was 20 to 30%.
In the case of `N#Cc1ccc(O[C@H]2CC[C@H](NC(=O)c3ccc(N4CCC(CN5CC6CC(C5)N6c5ccc6c(c5)C(=O)N(N5CCC(=O)NC5=O)C6=O)CC4)nn3)CC2)cc1Cl` [GT-05231, N-((1r,4r)-4-(3-chloro-4-cyanophenoxy)cyclohexyl)-6-(4-((6-(2-(2,4-dioxotetrahydropyrimidin-1(2H)-yl)-1,3-dioxoisoindolin-5-yl)-3,6-diazabicyclo[3.1.1]heptan-3-yl)methyl)piperidin-1-yl)pyridazine-3-carboxamide], the inhibition at 0.01 µM is 5 to 10% in [1], 5 to 10% in experiment [2] and 10 to 15% in experiment [3]. For the same molecule, the inhibition at 0.5 µM was in the range of 30 to 40% in experiment [1], 40 to 60% in experiment [2] and 30 to 40% in experiment [3].
On to `N#Cc1ccc(O[C@H]2CC[C@H](NC(=O)c3ccc(N4CCC(CN5CCN(C6CCN(c7ccc8c(c7)C(=O)N(N7CCC(=O)NC7=O)C8=O)CC6(F)F)CC5)CC4)nn3)CC2)cc1Cl` (some centres unmarked) [GT-05235, N-((1r,4r)-4-(3-chloro-4-cyanophenoxy)cyclohexyl)-6-(4-((4-(1-(2-(2,4-dioxotetrahydropyrimidin-1(2H)-yl)-1,3-dioxoisoindolin-5-yl)-3,3-difluoropiperidin-4-yl)piperazin-1-yl)methyl)piperidin-1-yl)pyridazine-3-carboxamide], for which the inhibition at 0.01 µM in experiment [1] lay within 10 to 15%; in experiment [2], 5 to 10%; in experiment [3], 5 to 10%. Besides, the values for the inhibition at 0.5 µM in [1], in experiment [2] and in [3] were 30 to 40%, 35 to 40% and 30 to 40%, respectively.
Turning to `CC(C)(O)c1cc2nn(C3CCN(Cc4ccc5c(c4)C(=O)N(N4CCC(=O)NC4=O)C5=O)CC3)cc2cc1NC(=O)c1cccc(C(F)(F)F)n1` [GT-05752, N-(2-(1-((2-(2,4-dioxotetrahydropyrimidin-1(2H)-yl)-1,3-dioxoisoindolin-5-yl)methyl)piperidin-4-yl)-6-(2-hydroxypropan-2-yl)-2H-indazol-5-yl)-6-(trifluoromethyl) picolinamide], in experiment [4] (Table IA4, IRAK4 inhibitor-based, 96 hours), the inhibition at 0.5 µM is 25 to 30%. In addition, the inhibition at 0.01 µM in [5] (Table IA4, IRAK4 inhibitor-based, RPMI-8226, 10 nM, 96 hours) lay within 15 to 20%.
For `CC(=O)c1c(C)c2cnc(Nc3ccc(N4CCC(N5CCN(Cc6ccc7c(c6)C(=O)N(N6CCC(=O)NC6=O)C7=O)CC5)CC4)cn3)nc2n(C2CCCC2)c1=O` [GT-06583, 5-((4-(1-(6-((6-acetyl-8-cyclopentyl-5-methyl-7-oxo-7,8-dihydropyrido[2,3-d]pyrimidin-2-yl)amino)pyridin-3-yl)piperidin-4-yl)piperazin-1-yl)methyl)-2-(2,4-dioxotetrahydropyrimidin-1(2H)-yl)isoindoline-1,3-dione], the inhibition at 0.01 µM was 35 to 40% in [6] (H292, 10 nM, read-out: Inhibition Rate at 10 nM (%)) and 40 to 60% in experiment [7] (MV-4-11, 10 nM, read-out: Inhibition Rate at 10 nM (%)). For the same molecule, the inhibition at 0.5 µM in [6] (H292, 500 nM, read-out: Inhibition Rate at 500 nM (%)) is 40 to 60%; in experiment [7] (MV-4-11, 500 nM, read-out: Inhibition Rate at 500 nM (%)), 40 to 60%.
Take `N#CC1(CNc2nc(-c3cc(NC4CCN(CC5CCN(c6cccc7c6C(=O)N(N6CCC(=O)NC6=O)C7=O)CC5)CC4)ncc3Cl)cs2)CCOCC1` [GT-08345, 4-(((4-(5-chloro-2-((1-((1-(2-(2,4-dioxotetrahydropyrimidin-1(2H)-yl)-1,3-dioxoisoindolin-4-yl)piperidin-4-yl)methyl)piperidin-4-yl)amino)pyridin-4-yl)thiazol-2-yl)amino)methyl)tetrahydro-2H-pyran-4-carbonitrile]: the inhibition at 0.5 µM in experiment [4] was in the range of 5 to 10%. For the same molecule, in experiment [5] (RPMI-8226, 10 nM), the inhibition at 0.01 µM was 20 to 30%.
`COc1cc(N2CCC(N3CCN(C)CC3)CC2)ccc1Nc1ncc(Cl)c(Nc2ccccc2P(C)(C)=O)n1` [brigatinib, Brigatinib, reference compound]: the IC50 in experiment [8] was in the range of 1000 to 5000 nM. Also, in experiment [9] (0.5 μM), the “Inhibition Rate at 0.5 μM (%)” value is “a (0% < a ≤ 10%)”. In addition, the “Inhibition Rate at 2 μM (%)” value in experiment [9] (2 μM) is “a1 (10% < a1 ≤ 20%)”.
